Results from patent publication US10206394B2, “Herbicidal compounds” (Syngenta Participations AG, priority 2014, dated 2019).
Where two headings read alike, the source gives them in different places.

Assays:
Assay in all cases: Glasshouse assay for herbicidal activity (pre- and post-emergence), percentage phytotoxicity
Type in all cases: in vivo
Avena fatua (AVEFA) = settings: Avena fatua
In short: (§1)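 Percent injury was estimated by eye on a scale where 0% means no damage and 100% complete damage. Ratings came 15 DAA post-emergence and 20 DAA pre-emergence, with plants held under 16 h light and 65% humidity at 24/18 °C or 20/16 °C day/night.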

[1] = test system: Echinochloa crus-galli (ECHCG); settings: Echinochloa crus-galli
In short: as §1

[2] = test system: Alopecurus myosuroides (ALOMY); settings: Alopecurus myosuroides
In short: as §1

Lolium perenne (LOLPE) = settings: Lolium perenne
In short: as §1

[3] = post-emergence, 360 h, POST-emergence, rate 250 g/ha, visual score 15 DAA (100%=total damage, 0%=no damage), read-out: Post-emergence herbicidal activity (percentage phytotoxicity) AVEFA POST
[4] = pre-emergence, 480 h, PRE-emergence, rate 250 g/ha, visual score 20 DAA (100%=total damage, 0%=no damage), read-out: Pre-emergence herbicidal activity (percentage phytotoxicity) AVEFA PRE
[5] = post-emergence, 360 h, POST-emergence, rate 250 g/ha, visual score 15 DAA (100%=total damage, 0%=no damage), read-out: Post-emergence herbicidal activity (percentage phytotoxicity) ECHCG POST
[6] = pre-emergence, 480 h, PRE-emergence, rate 250 g/ha, visual score 20 DAA (100%=total damage, 0%=no damage), read-out: Pre-emergence herbicidal activity (percentage phytotoxicity) ECHCG PRE
[7] = post-emergence, 360 h, POST-emergence, rate 250 g/ha, visual score 15 DAA (100%=total damage, 0%=no damage), read-out: Post-emergence herbicidal activity (percentage phytotoxicity) ALOMY POST
[8] = pre-emergence, 480 h, PRE-emergence, rate 250 g/ha, visual score 20 DAA (100%=total damage, 0%=no damage), read-out: Pre-emergence herbicidal activity (percentage phytotoxicity) ALOMY PRE
[9] = post-emergence, 360 h, POST-emergence, rate 250 g/ha, visual score 15 DAA (100%=total damage, 0%=no damage), read-out: Post-emergence herbicidal activity (percentage phytotoxicity) LOLPE POST
[10] = pre-emergence, 480 h, PRE-emergence, rate 250 g/ha, visual score 20 DAA (100%=total damage, 0%=no damage), read-out: Pre-emergence herbicidal activity (percentage phytotoxicity) LOLPE PRE
[11] = post-emergence, 360 h, Rate 250 g/ha, post-emergence, assessed visually 15 DAA, 100%=total damage, 0%=no damage, read-out: Post-emergence herbicidal activity (percentage phytotoxicity) AVEFA POST
[12] = pre-emergence, 480 h, Rate 250 g/ha, pre-emergence, assessed visually 20 DAA, 100%=total damage, 0%=no damage, read-out: Pre-emergence herbicidal activity (percentage phytotoxicity) AVEFA PRE
[13] = post-emergence, 360 h, Rate 250 g/ha, post-emergence, assessed visually 15 DAA, 100%=total damage, 0%=no damage, read-out: Post-emergence herbicidal activity (percentage phytotoxicity) ECHCG POST
[14] = pre-emergence, 480 h, Rate 250 g/ha, pre-emergence, assessed visually 20 DAA, 100%=total damage, 0%=no damage, read-out: Pre-emergence herbicidal activity (percentage phytotoxicity) ECHCG PRE
[15] = post-emergence, 360 h, Rate 250 g/ha, post-emergence, assessed visually 15 DAA, 100%=total damage, 0%=no damage, read-out: Post-emergence herbicidal activity (percentage phytotoxicity) ALOMY POST
[16] = pre-emergence, 480 h, Rate 250 g/ha, pre-emergence, assessed visually 20 DAA, 100%=total damage, 0%=no damage, read-out: Pre-emergence herbicidal activity (percentage phytotoxicity) ALOMY PRE
[17] = post-emergence, 360 h, Rate 250 g/ha, post-emergence, assessed visually 15 DAA, 100%=total damage, 0%=no damage, read-out: Post-emergence herbicidal activity (percentage phytotoxicity) LOLPE POST
[18] = pre-emergence, 480 h, Rate 250 g/ha, pre-emergence, assessed visually 20 DAA, 100%=total damage, 0%=no damage, read-out: Pre-emergence herbicidal activity (percentage phytotoxicity) LOLPE PRE

SMILES | pest or weed control at 250 g/ha (Avena fatua (AVEFA); [3]) | pest or weed control at 250 g/ha (Avena fatua (AVEFA); [4]) | pest or weed control at 250 g/ha [1, 5] | pest or weed control at 250 g/ha [1, 6] | pest or weed control at 250 g/ha [2, 7] | pest or weed control at 250 g/ha [2, 8] | pest or weed control at 250 g/ha (Lolium perenne (LOLPE); [9]) | pest or weed control at 250 g/ha (Lolium perenne (LOLPE); [10]) | pest or weed control at 250 g/ha (Avena fatua (AVEFA); [11]) | pest or weed control at 250 g/ha (Avena fatua (AVEFA); [12]) | pest or weed control at 250 g/ha [1, 13] | pest or weed control at 250 g/ha [1, 14] | pest or weed control at 250 g/ha [2, 15] | pest or weed control at 250 g/ha [2, 16] | pest or weed control at 250 g/ha (Lolium perenne (LOLPE); [17]) | pest or weed control at 250 g/ha (Lolium perenne (LOLPE); [18]) | other results
Cc1cc(C)c(C2C(=O)CC(CC(=O)NCc3ccccc3C)C2=O)c(C)c1 (stereo not drawn) [Compound B12] |  |  |  |  |  |  |  |  |  |  |  |  |  |  |  |  | pest or weed control at 250 g/ha (Avena fatua (AVEFA); post-emergence, 360 h, 250 g/ha, post-emergence, 15 DAA, visual assessment (100%=total damage, 0%=no damage), read-out: Post-emergence herbicidal activity (percentage phytotoxicity) AVEFA POST): 60%; pest or weed control at 250 g/ha (Avena fatua (AVEFA); pre-emergence, 480 h, 250 g/ha, pre-emergence, 20 DAA, visual assessment (100%=total damage, 0%=no damage), read-out: Pre-emergence herbicidal activity (percentage phytotoxicity) AVEFA PRE): 30%; pest or weed control at 250 g/ha ([1]; post-emergence, 360 h, 250 g/ha, post-emergence, 15 DAA, visual assessment (100%=total damage, 0%=no damage), read-out: Post-emergence herbicidal activity (percentage phytotoxicity) ECHCG POST): 90%; pest or weed control at 250 g/ha ([1]; pre-emergence, 480 h, 250 g/ha, pre-emergence, 20 DAA, visual assessment (100%=total damage, 0%=no damage), read-out: Pre-emergence herbicidal activity (percentage phytotoxicity) ECHCG PRE): 100%; pest or weed control at 250 g/ha ([2]; post-emergence, 360 h, 250 g/ha, post-emergence, 15 DAA, visual assessment (100%=total damage, 0%=no damage), read-out: Post-emergence herbicidal activity (percentage phytotoxicity) ALOMY POST): 60%; pest or weed control at 250 g/ha ([2]; pre-emergence, 480 h, 250 g/ha, pre-emergence, 20 DAA, visual assessment (100%=total damage, 0%=no damage), read-out: Pre-emergence herbicidal activity (percentage phytotoxicity) ALOMY PRE): 70%; pest or weed control at 250 g/ha (Lolium perenne (LOLPE); post-emergence, 360 h, 250 g/ha, post-emergence, 15 DAA, visual assessment (100%=total damage, 0%=no damage), read-out: Post-emergence herbicidal activity (percentage phytotoxicity) LOLPE POST): 90%; pest or weed control at 250 g/ha (Lolium perenne (LOLPE); pre-emergence, 480 h, 250 g/ha, pre-emergence, 20 DAA, visual assessment (100%=total damage, 0%=no damage), read-out: Pre-emergence herbicidal activity (percentage phytotoxicity) LOLPE PRE): 90%
C#CCN(C)C(=O)CC1CC(=O)C(c2c(C)cc(-n3cc(Cl)cn3)cc2CC)C1=O (stereo not drawn) [Compound B240] | 100% | 90% | 100% | 90% | 100% | 100% | 100% | 90% |  |  |  |  |  |  |  |  | 
Cc1cc(-c2ncc(Cl)cc2F)cc(C)c1C1C(=O)CC(CC(=O)NCc2ncc(C(F)(F)F)cc2Cl)C1=O (stereo not drawn) [Compound A113] |  |  |  |  |  |  |  |  | 100% | 90% | 100% | 100% | 100% | 80% | 100% | 90% | 
Cc1cc(-c2ncc(Cl)cc2F)cc(C)c1C1C(=O)CC(CC(=O)NCc2cccs2)C1=O (stereo not drawn) [Compound A125] |  |  |  |  |  |  |  |  | 100% | 80% | 100% | 100% | 90% | 70% | 100% | 90% | 
Cc1cc(-c2ccc(Cl)nn2)cc(C)c1C1C(=O)CC(CC(=O)NCc2cccs2)C1=O (stereo not drawn) [Compound A151] |  |  |  |  |  |  |  |  | 50% | 70% | 70% | 100% | 40% | 40% | 40% | 80% | 
C#CCNC(=O)CC1CC(=O)C(c2c(C)cc(OCC(F)(F)F)cc2CC)C1=O (stereo not drawn) [Compound B166] | 100% | 100% | 100% | 100% | 100% | 100% | 100% | 100% |  |  |  |  |  |  |  |  | 
